In assay [1] the test system is maximum electroshock seizure (MES) model. Briefly: Maximum electroshock seizure (MES) model test. It is filed as in vivo, mice. The settings on record: for responders at 50 mg/kg / responders at 100 mg/kg: Mus musculus, po, 1 h; for responders at 50 mg/kg / responders at 100 mg/kg / MES (positive number/tested number): inhibition of hind limb extension. From the text: In order to evaluate the antiepileptic activity of each drug, maximum electroshock seizure (MES) model, subcutaneously pentetrazol-injected model (scPTZ), and amygdala kindling model in rats were used because they show a good clinical prediction.
Test 1: Test with Maximum Electroshock Seizure (MES) Model
Test 1 evaluates the anticonvulsant action of medicaments. Animal model used herein represents the clinical phenotypes of generalized tonic seizure and secondarily generalized tonic-clonic seizure. Test compounds (50 or 100 mg/kg) were orally administered to Slc: ddY male mice (3 mice in each group, body weight 20-30 g). After an hour of administration, their corneas were electrically stimulated (60 Hz, 25 mA, 0.2 second) to induce tonic convulsion (tonic extensor in their hind limbs). […] To the control mice, 0.5% tragacanth solution or 0.5% methylcellulose solution was administered.

The subject of assay [2] is subcutaneously pentetrazol-injected model (scPTZ). Briefly: Subcutaneously pentetrazol-injected model (scPTZ) test. The assay is classed as in vivo, mice. Particulars: for responders at 100 mg/kg / responders at 50 mg/kg: Mus musculus, po, 1 h. From the text: In order to evaluate the antiepileptic activity of each drug, maximum electroshock seizure (MES) model, subcutaneously pentetrazol-injected model (scPTZ), and amygdala kindling model in rats were used because they show a good clinical prediction. […] Test with Subcutaneously Pentetrazol-Injected Model (scPTZ) Similar to Test 1, Test 2 evaluates the anticonvulsant action of medicaments. However, unlike Test 1, animal model used herein represents the clinical phenotypes of generalized absence seizure and myoclonic seizure. Test compounds (50 or 100 mg/kg) were orally administered to Slc: ddY male mice (3 mice in each group, body weight 20-30 g). After an hour, pentetrazol (85 mg/kg) was subcutaneously administered. […] To the control mice, 0.5% tragacanth solution or 0.5% methylcellulose solution was administered.

Setting [3] is: 50 mg/kg oral, Slc: ddY male mice, 3 per group, electrical stimulation 1 hour after administration, read-out: MES (positive number/tested number) (converted).
The mark [4] stands for this setting: 100 mg/kg oral, Slc: ddY male mice, 3 per group, electrical stimulation 1 hour after administration, read-out: MES (positive number/tested number) (converted).
Where [5] appears, read: 100 mg/kg oral, Slc: ddY male mice, 3 per group, pentetrazol 85 mg/kg s.c. after 1 hour, observed 30 minutes for clonic convulsion, read-out: scPTZ (positive number/tested number) (converted).
The mark [6] stands for this setting: 50 mg/kg oral, Slc: ddY male mice, 3 per group, pentetrazol 85 mg/kg s.c. after 1 hour, observed 30 minutes for clonic convulsion, read-out: scPTZ (positive number/tested number) (converted).

Read-outs that look alike come from different tables or passages of the source.

In the case of `CNC(=O)Cc1ccccc1-c1cccc(OC(F)(F)F)c1` [Example 99, N-methyl-2-[3′-(trifluoromethoxy)biphenyl-2-yl]acetamide], the responders at 50 mg/kg in assay [1] (setting [3]) was 66.7%. The responders at 100 mg/kg is 100% in assay [1] (setting [4]) and 33.3% in assay [2] (setting [5]).
Consider `O=C(Cc1ccccc1-c1ccccc1F)NC1CC1` [Example 172], for which the figures for the responders at 100 mg/kg in assay [1] (setting [4]) and in assay [2] (setting [5]) were 100% and 0%, respectively.
In the case of `NC(=O)C(F)(F)c1ccccc1-c1cccc(Cl)c1` [Example 171, 2-(3′-chlorobiphenyl-2-yl)-2,2-difluoroacetamide], the responders at 50 mg/kg is 100% in assay [1] (setting [3]) and 33.3% in assay [2] (setting [6]). The responders at 100 mg/kg in assay [1] (setting [4]) and in assay [2] (setting [5]) was 100% in each case.
As for `NC(=O)Cc1cc(F)ccc1-c1ccc(F)cc1` [Example 114, 2-(4,4′-difluorobiphenyl-2-yl)acetamide], the responders at 50 mg/kg in assay [1] (setting [3]) is 100%. Further, the responders at 100 mg/kg is 100% in assay [1] (setting [4]) and 33.3% in assay [2] (setting [5]).
On to `CNC(=O)Cc1ccccc1-c1cccc(Br)c1` [Example 55], for which the responders at 50 mg/kg in assay [1] (setting [3]) is 0%. The figures for the responders at 100 mg/kg in assay [1] (setting [4]) and in assay [2] (setting [5]) were 100% and 0%, respectively.
Consider `NC(=O)Cc1ccccc1-c1cccc(OC(F)(F)F)c1` [Example 79, 2-[3′-(trifluoromethoxy)biphenyl-2-yl]acetamide], for which the responders at 50 mg/kg in assay [1] (setting [3]) and in assay [2] (setting [6]) was 33.3% each time. Also, the responders at 100 mg/kg in assay [1] (setting [4]) and in assay [2] (setting [5]) was 100% throughout.
Regarding `CNC(=O)C1(c2ccccc2-c2ccccc2F)CC1` [Example 157, 1-(2′-fluorobiphenyl-2-yl)-N-methyl-cyclopropane-carboxamide], the responders at 50 mg/kg in assay [1] (setting [3]) is 33.3%; in assay [2] (setting [6]), 66.7%. The responders at 100 mg/kg in assay [1] (setting [4]) is 100%; in assay [2] (setting [5]), 66.7%.
Consider `NC(=O)C(O)c1cc(F)ccc1-c1ccccc1` (centres unmarked) [Example 186, 2-(4-fluorobiphenyl-2-yl)-2-hydroxyacetamide], for which the responders at 50 mg/kg in assay [1] (setting [3]) is 100%; in assay [2] (setting [6]) it was 66.7%. In addition, the responders at 100 mg/kg is 100% in assay [1] (setting [4]) and 66.7% in assay [2] (setting [5]). Besides, the “anticonvulsant action in maximum electroshock seizure (MES) model test” value in assay [1] (mice, oral 50 or 100 mg/kg, 1 hour after administration) is “anticonvulsant action was observed”. Also, the “anticonvulsant action in subcutaneously pentetrazol-injected model (scPTZ) test” value in assay [2] (mice, oral 50 or 100 mg/kg, pentetrazol 85 mg/kg s.c. after 1 hour) is listed as “anticonvulsant action was observed”.
Regarding `CNC(=O)Cc1cc(F)ccc1-c1ccccc1` [Example 45, 2-(4-fluorobiphenyl-2-yl)-N-methylacetamide], the responders at 50 mg/kg in assay [1] (setting [3]) is 100%. Also, the responders at 100 mg/kg was 100% in assay [1] (setting [4]) and 0% in assay [2] (setting [5]).
On to `NC(=O)Cc1ccccc1-c1ccc(F)cc1` [Example 22, 2-(4′-fluorobiphenyl-2-yl)acetamide], for which the responders at 50 mg/kg in assay [1] (setting [3]) was 66.7%. In addition, the results for the responders at 100 mg/kg in assay [1] (setting [4]) and in assay [2] (setting [5]) were 100% and 33.3%, respectively.
As to `CNC(=O)Cc1ccc(Cl)cc1-c1cccc(Cl)c1` [Example 128], the figures for the responders at 100 mg/kg in assay [1] (setting [4]) and in assay [2] (setting [5]) were 66.7% and 0%, respectively.
On to `N#Cc1ccc(Cl)cc1-c1ccccc1CC(N)=O` [Example 107], for which the responders at 100 mg/kg is 0% in assay [1] (setting [4]) and 100% in assay [2] (setting [5]).
`CNC(=O)Cc1c(F)cccc1-c1ccccc1` [Example 119, 2-(3-fluorobiphenyl-2-yl)-N-methylacetamide]: the responders at 50 mg/kg in assay [1] (setting [3]) is 100%. The responders at 100 mg/kg in assay [1] (setting [4]) is 100%; in assay [2] (setting [5]), 0%.
Turning to `NC(=O)C(F)(F)c1ccccc1-c1ccccc1` [Example 174, 2-(biphenyl-2-yl)-2,2-difluoroacetamide], the responders at 50 mg/kg in assay [1] (setting [3]) was 100%; in assay [2] (setting [6]) it was 33.3%. Further, the responders at 100 mg/kg in assay [1] (setting [4]) is 100%; in assay [2] (setting [5]), 66.7%.
As for `CNC(=O)C(C)c1ccccc1-c1ccccc1F` (centres unmarked) [Example 58, 2-(2′-fluorobiphenyl-2-yl)-N-methyl propanamide], the responders at 50 mg/kg in assay [1] (setting [3]) and in assay [2] (setting [6]) was 0% each time. For the same compound, the responders at 100 mg/kg in assay [1] (setting [4]) and in assay [2] (setting [5]) was 66.7% each time.
For `NC(=O)C1(c2ccccc2-c2ccccc2)CC1` [Example 155], the values for the responders at 100 mg/kg in assay [1] (setting [4]) and in assay [2] (setting [5]) were 0% and 66.7%, respectively. In addition, the responders at 50 mg/kg in assay [2] (setting [6]) is 0%.
Turning to `CNC(=O)Cc1ccccc1-c1ccc(F)cc1C(F)(F)F` [Example 104], the responders at 100 mg/kg in assay [1] (setting [4]) is 100%; in assay [2] (setting [5]), 0%.
Take `CNC(=O)Cc1ccc(F)cc1-c1cccc(F)c1` [Example 121]: the responders at 50 mg/kg in assay [1] (setting [3]) is 0%. Further, the figures for the responders at 100 mg/kg in assay [1] (setting [4]) and in assay [2] (setting [5]) were 100% and 33.3%, respectively.
On to `NC(=O)C(F)c1ccccc1-c1cccc(Cl)c1` (centres unmarked) [Example 167, 2-(3′-chlorobiphenyl-2-yl)-2-fluoroacetamide], for which the responders at 50 mg/kg in assay [1] (read-out: MES (positive number/tested number), 50 mg/kg oral, Slc: ddY male mice, 3 per group, electrical stimulation 1 hour after administration) was 33.3%; in assay [2] (read-out: scPTZ (positive number/tested number), 50 mg/kg oral, Slc: ddY male mice, 3 per group, pentetrazol 85 mg/kg s.c. after 1 hour, observed 30 minutes for clonic convulsion) it was 66.7%. In addition, the responders at 100 mg/kg is 100% in assay [1] (read-out: MES (positive number/tested number), 100 mg/kg oral, Slc: ddY male mice, 3 per group, electrical stimulation 1 hour after administration) and 100% in assay [2] (read-out: scPTZ (positive number/tested number), 100 mg/kg oral, Slc: ddY male mice, 3 per group, pentetrazol 85 mg/kg s.c. after 1 hour, observed 30 minutes for clonic convulsion).
As to `CNC(=O)Cc1cc(C(F)(F)F)ccc1-c1ccccc1` [Example 117], the responders at 100 mg/kg in assay [1] (setting [4]) is 0%; in assay [2] (setting [5]), 66.7%. Besides, the responders at 50 mg/kg in assay [2] (setting [6]) is 33.3%.
For the compound `Cc1cc(Cl)cc(-c2ccccc2CC(N)=O)c1F` [Example 81], the responders at 100 mg/kg in assay [1] (setting [4]) is 33.3%; in assay [2] (setting [5]) it was 0%.
The like results for `CNC(=O)Cc1ccccc1-c1cccc(SC)c1` [Example 100] were, in that order, 0% and 100%.
As for `CNC(=O)Cc1ccc(F)cc1-c1ccccc1F` [Example 42], the values for the responders at 100 mg/kg in assay [1] (setting [4]) and in assay [2] (setting [5]) were 33.3% and 66.7%, respectively. In addition, the responders at 50 mg/kg in assay [2] (setting [6]) is 33.3%.
Take `CNC(=O)Cc1cc(Cl)ccc1-c1ccc(C(F)(F)F)cc1` [Example 143]: the responders at 100 mg/kg in assay [1] (setting [4]) was 0%; in assay [2] (setting [5]), 100%.
As for `CNC(=O)Cc1ccccc1-c1ccc(F)cc1` [Example 23, 2-(4′-fluorobiphenyl-2-yl)-N-methylacetamide], in assay [1] (setting [3]), the responders at 50 mg/kg was 100%. Also, the responders at 100 mg/kg in assay [1] (setting [4]) was 100%; in assay [2] (setting [5]), 33.3%.
As to `CN(C)C(=O)Cc1ccccc1-c1ccc(Cl)cc1` [Example 12], in assay [1] (setting [3]), the responders at 50 mg/kg is 0%. Besides, the responders at 100 mg/kg is 100% in assay [1] (setting [4]) and 33.3% in assay [2] (setting [5]).
For `NC(=O)[C@@H](O)c1ccccc1-c1cc(Cl)cc(Cl)c1` [Example 216, 2-(3′,5′-dichlorobiphenyl-2-yl)-2S-hydroxyacetamide], the “MES (positive number/tested number)” value in assay [1] (50 mg/kg oral, Slc: ddY male mice, 3 per group, electrical stimulation 1 hour after administration) is recorded as 1/3; in assay [1] (100 mg/kg oral, Slc: ddY male mice, 3 per group, electrical stimulation 1 hour after administration), 2/3. Also, the “scPTZ (positive number/tested number)” value is 1/3 in assay [2] (50 mg/kg oral, Slc: ddY male mice, 3 per group, pentetrazol 85 mg/kg s.c. after 1 hour, observed 30 minutes for clonic convulsion) and 1/3 in assay [2] (100 mg/kg oral, Slc: ddY male mice, 3 per group, pentetrazol 85 mg/kg s.c. after 1 hour, observed 30 minutes for clonic convulsion).
Consider `NC(=O)C(O)c1ccccc1-c1ccccc1Cl` (single isomer, unassigned) [Example 220, 2-(2′-chlorobiphenyl-2-yl)-2-hydroxyacetamide], for which the responders at 50 mg/kg was 100% in assay [1] (setting [3]) and 33.3% in assay [2] (setting [6]). Moreover, the responders at 100 mg/kg in assay [1] (setting [4]) and in assay [2] (setting [5]) was 100% in each case.
Take `CSc1cccc(-c2ccccc2CC(N)=O)c1` [Example 94]: the responders at 100 mg/kg in assay [2] (setting [5]) was 33.3%.

Source of the values: US20120142771A1, “BIPHENYLACETAMIDE DERIVATIVE” (Dainippon Sumitomo Pharma Co., Ltd., priority 2008, published 2012).
